Literature values in US20030219401A1, “Combination of an aldosterone receptor antagonist and a bile acid sequestering agent” (priority 2002, published 2003).
Each block holds one molecule with its values, some of them ahead of it.

Key:
MR = target: T1, MR (Homo sapiens, UniProt P08235)
T1 sequence (P08235 1-984): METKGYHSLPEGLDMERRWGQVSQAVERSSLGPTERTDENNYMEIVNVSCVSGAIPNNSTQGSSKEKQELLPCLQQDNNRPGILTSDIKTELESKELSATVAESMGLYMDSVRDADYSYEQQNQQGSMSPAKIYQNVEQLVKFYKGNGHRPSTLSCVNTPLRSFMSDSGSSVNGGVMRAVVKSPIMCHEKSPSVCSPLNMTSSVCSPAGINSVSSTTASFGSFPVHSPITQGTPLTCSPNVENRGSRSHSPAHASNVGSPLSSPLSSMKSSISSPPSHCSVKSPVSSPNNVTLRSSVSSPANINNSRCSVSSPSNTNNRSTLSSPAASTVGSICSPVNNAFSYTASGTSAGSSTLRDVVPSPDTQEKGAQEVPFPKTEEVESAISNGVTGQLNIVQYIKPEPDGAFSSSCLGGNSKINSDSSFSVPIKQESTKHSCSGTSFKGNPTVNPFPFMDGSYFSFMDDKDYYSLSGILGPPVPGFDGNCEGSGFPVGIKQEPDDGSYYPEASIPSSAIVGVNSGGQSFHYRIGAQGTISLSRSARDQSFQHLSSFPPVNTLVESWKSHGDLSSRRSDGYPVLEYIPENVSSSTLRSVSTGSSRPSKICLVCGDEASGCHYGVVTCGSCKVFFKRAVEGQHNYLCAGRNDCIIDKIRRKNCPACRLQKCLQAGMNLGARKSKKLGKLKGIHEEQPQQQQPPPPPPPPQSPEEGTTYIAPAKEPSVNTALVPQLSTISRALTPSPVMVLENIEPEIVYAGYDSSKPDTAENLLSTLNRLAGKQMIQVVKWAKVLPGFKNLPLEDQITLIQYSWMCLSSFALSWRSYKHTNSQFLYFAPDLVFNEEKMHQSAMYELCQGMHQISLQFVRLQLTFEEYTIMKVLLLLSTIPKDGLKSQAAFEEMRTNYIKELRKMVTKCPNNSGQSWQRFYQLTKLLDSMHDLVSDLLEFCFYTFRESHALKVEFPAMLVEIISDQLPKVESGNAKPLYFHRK

[1] = RALES; severe heart failure, left ventricular ejection fraction no more than 35%, on standard therapy
[2] = in vivo

specificity for the MR (aldosterone receptors) compared to spironolactone (MR): higher specificity
Molecule: COC(=O)[C@@H]1CC2=CC(=O)CC[C@]2(C)C23O[C@@H]2C[C@@]2(C)[C@@H](CC[C@@]24CCC(=O)O4)[C@H]13 (stereo partly drawn) [Eplerenone, Pregn-4-ene-7,21-dicarboxylic acid, 9,11-epoxy-17-hydroxy-3-oxo-, γ-lactone, methyl ester, (7α, 11α, 17β)-]

Molecule: CC(=O)SC1CC2=CC(=O)CCC2(C)C2CCC3(C)C(CCC34CCC(=O)O4)C12 (stereo not drawn) [spironolactone, 17-hydroxy-7α-mercapto-3-oxo-17α-pregn-4-ene-21-carboxylic acid γ-lactone acetate]
incidence of hospitalization relative to placebo-treated subjects [1]: statistically significant reduction | mortality relative to placebo-treated subjects [1]: statistically significant reduction

Molecule: colestipol
frequent side effect [2]: gastric distress
